System: 233499-124-R-J3-PDC complex spheroid growth
Assay: Anticancer human tumor 233499-124-R-J3-PDC patient-derived colon adenocarcinoma cell line growth inhibition [AhR]
Conditions: for IC50: curve of first compound; for viability, T/C: stronger effect = lower value; active means viability on the fitted dose curve at most 10% of control; inactive means the rest
Method in brief: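 Agents were dosed in half-log steps down from roughly clinical Cmax, or from 10 microM where Cmax was unknown, alone and with AhR antagonists. Read-out: percent test/control growth of tumor spheroids containing HUVEC and MSC stromal cells.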

[1] = second compound 0.1 µM, first compound 0.0316 µM
[2] = second compound 0.1 µM, first compound 0.1 µM
[3] = second compound 0.1 µM, first compound 0.316 µM
[4] = second compound 0.1 µM, first compound 1 µM
[5] = second compound 0.1 µM, first compound 3.16 µM
[6] = second compound 0.1 µM, first compound 10 µM
[7] = second compound 0.316 µM, first compound 0.0316 µM
[8] = second compound 0.316 µM, first compound 0.1 µM
[9] = second compound 0.316 µM, first compound 0.316 µM
[10] = second compound 0.316 µM, first compound 1 µM
[11] = second compound 0.316 µM, first compound 3.16 µM
[12] = second compound 0.316 µM, first compound 10 µM
[13] = second compound 1 µM, first compound 0.0316 µM
[14] = second compound 1 µM, first compound 0.1 µM
[15] = second compound 1 µM, first compound 0.316 µM
[16] = second compound 1 µM, first compound 1 µM
[17] = second compound 1 µM, first compound 3.16 µM
[18] = second compound 1 µM, first compound 10 µM
[19] = second compound 3.16 µM, first compound 0.0316 µM
[20] = second compound 3.16 µM, first compound 0.1 µM
[21] = second compound 3.16 µM, first compound 0.316 µM
[22] = second compound 3.16 µM, first compound 1 µM
[23] = second compound 3.16 µM, first compound 3.16 µM
[24] = second compound 3.16 µM, first compound 10 µM
[25] = second compound 10 µM, first compound 0.0316 µM
[26] = second compound 10 µM, first compound 0.1 µM
[27] = second compound 10 µM, first compound 0.316 µM
[28] = second compound 10 µM, first compound 1 µM
[29] = second compound 10 µM, first compound 3.16 µM
[30] = second compound 10 µM, first compound 10 µM
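Further: spheroids exposed to agents for seven days before reading.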

CC1COCCN1c1cc(C2(S(C)(=N)=O)CC2)nc(-c2ccnc3[nH]ccc23)n1 (stereo not given) + Cc1ccccc1N=Nc1ccc(NC(=O)c2ccnn2C)c(C)c1
inactive: viability, T/C [1] 103% | viability, T/C [2] 112% | viability, T/C [3] 91.2% | viability, T/C [4] 97.8% | viability, T/C [5] 88.8% | viability, T/C [6] 91% | viability, T/C [7] 113% | viability, T/C [8] 107% | viability, T/C [9] 94.5% | viability, T/C [10] 99.7% | viability, T/C [11] 96.6% | viability, T/C [12] 85% | viability, T/C [13] 103% | viability, T/C [14] 100% | viability, T/C [15] 104% | viability, T/C [16] 97.6% | viability, T/C [17] 77.7% | viability, T/C [18] 74.2% | viability, T/C [19] 112% | viability, T/C [20] 110% | viability, T/C [21] 105% | viability, T/C [22] 101% | viability, T/C [23] 99.7% | viability, T/C [24] 84.1% | viability, T/C [25] 108% | viability, T/C [26] 107% | viability, T/C [27] 118% | viability, T/C [28] 106% | viability, T/C [29] 109% | viability, T/C [30] 77.8%
> 10000 nM: IC50 (second compound 0.1 µM) | IC50 (second compound 0.316 µM) | IC50 (second compound 1 µM) | IC50 (second compound 3.16 µM) | IC50 (second compound 10 µM)

CC1COCCN1c1cc(-c2ccnn2C)c2ccnc(-c3ccn[nH]3)c2n1 (stereo not given) + Cc1cncc(-c2nc(NCCc3c[nH]c4ccccc34)c3ncn(C(C)C)c3n2)c1
293 nM: IC50 (second compound 3.16 µM)
active: viability, T/C (second compound 10 µM, first compound 0.00316 µM) 3.13% | viability, T/C (second compound 10 µM, first compound 0.01 µM) 3.32% | viability, T/C [25] 3.34% | viability, T/C [26] 4.58% | viability, T/C [27] 3.11% | viability, T/C [28] 5.96%
525 nM: IC50 (second compound 0.316 µM)
inactive: viability, T/C (second compound 0.1 µM, first compound 0.00316 µM) 106% | viability, T/C (second compound 0.1 µM, first compound 0.01 µM) 89.7% | viability, T/C [1] 102% | viability, T/C [2] 74.6% | viability, T/C [3] 62.6% | viability, T/C [4] 37.8% | viability, T/C (second compound 0.316 µM, first compound 0.00316 µM) 85.3% | viability, T/C (second compound 0.316 µM, first compound 0.01 µM) 92.6% | viability, T/C [7] 76.2% | viability, T/C [8] 81.1% | viability, T/C [9] 60.2% | viability, T/C [10] 35.8% | viability, T/C (second compound 1 µM, first compound 0.00316 µM) 66.5% | viability, T/C (second compound 1 µM, first compound 0.01 µM) 63% | viability, T/C [13] 69.3% | viability, T/C [14] 72.9% | viability, T/C [15] 53.5% | viability, T/C [16] 50.2% | viability, T/C (second compound 3.16 µM, first compound 0.00316 µM) 66.7% | viability, T/C (second compound 3.16 µM, first compound 0.01 µM) 74.1% | viability, T/C [19] 73.1% | viability, T/C [20] 63.8% | viability, T/C [21] 49.4% | viability, T/C [22] 40.2%
> 1000 nM: IC50 (second compound 1 µM)
546 nM: IC50 (second compound 0.1 µM)
< 3.16 nM: IC50 (second compound 10 µM)

CC(C)CC(NC(=O)C(Cc1ccccc1)NC(=O)c1cnccn1)B(O)O (stereo not given) + Cc1ccccc1N=Nc1ccc(NC(=O)c2ccnn2C)c(C)c1
15.6 nM: IC50 (second compound 3.16 µM)
16.3 nM: IC50 (second compound 0.1 µM)
inactive: viability, T/C (second compound 0.1 µM, first compound 0.000949 µM) 103% | viability, T/C (second compound 0.1 µM, first compound 0.003 µM) 110% | viability, T/C (second compound 0.1 µM, first compound 0.00949 µM) 94.1% | viability, T/C (second compound 0.316 µM, first compound 0.000949 µM) 99.4% | viability, T/C (second compound 0.316 µM, first compound 0.003 µM) 108% | viability, T/C (second compound 0.316 µM, first compound 0.00949 µM) 94.5% | viability, T/C (second compound 1 µM, first compound 0.000949 µM) 111% | viability, T/C (second compound 1 µM, first compound 0.003 µM) 110% | viability, T/C (second compound 1 µM, first compound 0.00949 µM) 98.1% | viability, T/C (second compound 1 µM, first compound 0.03 µM) 12.9% | viability, T/C (second compound 3.16 µM, first compound 0.000949 µM) 111% | viability, T/C (second compound 3.16 µM, first compound 0.003 µM) 96.9% | viability, T/C (second compound 3.16 µM, first compound 0.00949 µM) 83.8% | viability, T/C (second compound 10 µM, first compound 0.000949 µM) 106% | viability, T/C (second compound 10 µM, first compound 0.003 µM) 108% | viability, T/C (second compound 10 µM, first compound 0.00949 µM) 105%
17.3 nM: IC50 (second compound 10 µM)
16.5 nM: IC50 (second compound 0.316 µM)
active: viability, T/C (second compound 0.1 µM, first compound 0.03 µM) 0.26% | viability, T/C (second compound 0.1 µM, first compound 0.0949 µM) 0.06% | viability, T/C (second compound 0.1 µM, first compound 0.3 µM) 0.13% | viability, T/C (second compound 0.316 µM, first compound 0.03 µM) 1.73% | viability, T/C (second compound 0.316 µM, first compound 0.0949 µM) 0.06% | viability, T/C (second compound 0.316 µM, first compound 0.3 µM) 0.13% | viability, T/C (second compound 1 µM, first compound 0.0949 µM) 0.64% | viability, T/C (second compound 1 µM, first compound 0.3 µM) 0.14% | viability, T/C (second compound 3.16 µM, first compound 0.03 µM) 5.62% | viability, T/C (second compound 3.16 µM, first compound 0.0949 µM) 0.09% | viability, T/C (second compound 3.16 µM, first compound 0.3 µM) 0.14% | viability, T/C (second compound 10 µM, first compound 0.03 µM) 0.37% | viability, T/C (second compound 10 µM, first compound 0.0949 µM) 0.18% | viability, T/C (second compound 10 µM, first compound 0.3 µM) 0.22%
18.2 nM: IC50 (second compound 1 µM)

Nc1ccn(C2OC(CO)C(O)C2(F)F)c(=O)n1 (stereo not given) + CC(CO)NC(=O)c1cc(-c2ccc(Cl)cc2)nn(-c2cnn(C)c2)c1=O
inactive: viability, T/C [1] 58.7% | viability, T/C [2] 58.9% | viability, T/C [3] 18.6% | viability, T/C [4] 30.1% | viability, T/C [5] 24.2% | viability, T/C [6] 29.7% | viability, T/C [7] 50% | viability, T/C [8] 54% | viability, T/C [9] 33.6% | viability, T/C [10] 35% | viability, T/C [11] 29.3% | viability, T/C [12] 35.9% | viability, T/C [13] 61% | viability, T/C [14] 57.8% | viability, T/C [15] 35.3% | viability, T/C [16] 37.7% | viability, T/C [17] 28.4% | viability, T/C [18] 36.1% | viability, T/C [19] 65% | viability, T/C [20] 69.7% | viability, T/C [21] 38.9% | viability, T/C [22] 31.4% | viability, T/C [23] 37.9% | viability, T/C [24] 42.4% | viability, T/C [25] 60.6% | viability, T/C [26] 54.1% | viability, T/C [27] 32.1% | viability, T/C [28] 31.3% | viability, T/C [29] 51.9% | viability, T/C [30] 30.1%
136 nM: IC50 (second compound 0.1 µM)
202 nM: IC50 (second compound 3.16 µM)
149 nM: IC50 (second compound 1 µM)
130 nM: IC50 (second compound 10 µM)
113 nM: IC50 (second compound 0.316 µM)

Source: PubChem BioAssay AID1918993 (Molecular Pharmacology Branch, DTP, NCI, 2023)
